Experimental data from patent US10183950B2, “Thienopyrimidine inhibitors of atypical protein kinase C” (Cancer Research Technology Limited, priority 2011, dated 2019).

Target: T1, full-length human PKCι (Homo sapiens, UniProt P41743)
T1 construct: Recombinant, full-length human PKCι expressed in Sf21 insect cells is also commercially available; purchased; host or cells: Sf21 insect cells
T1 sequence (P41743 1-596): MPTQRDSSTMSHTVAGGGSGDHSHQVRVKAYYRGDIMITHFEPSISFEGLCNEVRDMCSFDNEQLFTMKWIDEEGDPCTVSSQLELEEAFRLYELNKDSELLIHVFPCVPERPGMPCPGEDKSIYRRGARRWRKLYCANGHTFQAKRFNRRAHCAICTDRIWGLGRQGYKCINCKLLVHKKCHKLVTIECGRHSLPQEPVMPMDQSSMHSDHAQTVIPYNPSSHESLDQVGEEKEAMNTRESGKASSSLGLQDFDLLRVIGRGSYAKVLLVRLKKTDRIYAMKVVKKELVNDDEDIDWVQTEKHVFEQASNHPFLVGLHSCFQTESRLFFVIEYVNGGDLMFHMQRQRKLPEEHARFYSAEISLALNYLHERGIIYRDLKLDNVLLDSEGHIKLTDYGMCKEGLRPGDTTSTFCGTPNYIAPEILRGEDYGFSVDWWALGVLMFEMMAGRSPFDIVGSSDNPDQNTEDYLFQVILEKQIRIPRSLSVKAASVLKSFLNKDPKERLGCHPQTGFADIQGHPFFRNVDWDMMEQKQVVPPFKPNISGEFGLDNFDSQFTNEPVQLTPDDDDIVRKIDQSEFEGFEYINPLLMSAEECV
Experiment: PKCι IC50 IMAP fluorescence polarisation assay, full-length enzyme
Format: biochemical
Settings: full length PKCi at 15 μM ATP; read-out: IC50 in IMAP assay against full length PKCi

IC50 [µM]	SMILES
< 0.1	N[C@H](CNc1nc(-c2ccncc2)nc2c(/C=C/C3CC3)csc12)Cc1ccccc1 [compound 405, (S)-N*1*-[7-((E)-2-Cyclopropyl-vinyl)-2-pyridin-4-yl-thieno[3,2-d]pyrimidin-4-yl]-3-phenyl-propane-1,2-diamine]
1 to 10	CC(C)(C)/C=C/c1csc2c(NC[C@@H](N)Cc3ccccc3)nc(-c3ccncc3)nc12 [compound 406, (S)-N*1*-[7-((E)-3,3-Dimethyl-but-1-enyl)-2-pyridin-4-yl-thieno[3,2-d]pyrimidin-4-yl]-3-phenyl-propane-1,2-diamine]
< 0.1	C/C=C\c1csc2c(NC[C@@H](N)Cc3ccccc3)nc(-c3ccncc3)nc12 [compound 407, (S)-3-Phenyl-N*1*-[7-((Z)-propenyl)-2-pyridin-4-yl-thieno[3,2-d]pyrimidin-4-yl]-propane-1,2-diamine]
< 0.1	C=Cc1csc2c(NC[C@@H](N)Cc3ccccc3)nc(-c3ccncc3)nc12 [compound 408, (S)-3-Phenyl-N*1*-(2-pyridin-4-yl-7-vinyl-thieno[3,2-d]pyrimidin-4-yl)-propane-1,2-diamine]
0.1 to 1	N[C@H](CNc1nc(-c2ccncc2)nc2c(-c3ccc(F)cc3)csc12)Cc1ccccc1 [compound 409, (S)-N*1*-[7-(4-Fluoro-phenyl)-2-pyridin-4-yl-thieno[3,2-d]pyrimidin-4-yl]-3-phenyl-propane-1,2-diamine]
1 to 10	N[C@H](CNc1nc(-c2ccncc2)nc2c(-c3cccnc3)csc12)Cc1ccccc1 [compound 410, (S)-3-Phenyl-N*1*-(2-pyridin-4-yl-7-pyridin-3-yl-thieno[3,2-d]pyrimidin-4-yl)-propane-1,2-diamine]
1 to 10	Cn1cc(-c2csc3c(NC[C@@H](N)Cc4ccccc4)nc(-c4ccncc4)nc23)cn1 [compound 411, (S)-N*1*-[7-(1-Methyl-1H-pyrazol-4-yl)-2-pyridin-4-yl-thieno[3,2-d]pyrimidin-4-yl]-3-phenyl-propane-1,2-diamine]
1 to 10	Cc1ccc(-c2csc3c(NC[C@@H](N)Cc4ccccc4)nc(-c4ccncc4)nc23)o1 [compound 412, (S)-N*1*-[7-(5-Methyl-furan-2-yl)-2-pyridin-4-yl-thieno[3,2-d]pyrimidin-4-yl]-3-phenyl-propane-1,2-diamine]
< 0.1	N[C@H](CNc1nc(-c2ccncc2)nc2c(C3CC3)csc12)Cc1ccccc1 [compound 413, (S)-N*1*-(7-Cyclopropyl-2-pyridin-4-yl-thieno[3,2-d]pyrimidin-4-yl)-3-phenyl-propane-1,2-diamine]
0.1 to 1	N[C@@H](CNc1nc(-c2ccncc2)nc2c(-c3ccn[nH]3)csc12)Cc1ccccc1 [compound 414, (R)-3-Phenyl-N*1*-[7-(1H-pyrazol-3-yl)-2-pyridin-4-yl-thieno[3,2-d]pyrimidin-4-yl]-propane-1,2-diamine]
1 to 10	Cn1ccc(-c2csc3c(NC[C@@H](N)Cc4ccccc4)nc(-c4ccncc4)nc23)n1 [compound 415, (S)-N*1*-[7-(1-Methyl-1H-pyrazol-3-yl)-2-pyridin-4-yl-thieno[3,2-d]pyrimidin-4-yl]-3-phenyl-propane-1,2-diamine]
< 0.1	N[C@H](CNc1nc(-c2ccncc2F)nc2c(-c3cc[nH]n3)csc12)Cc1ccccc1 [compound 416, (S)-N*1*-[2-(3-Fluoro-pyridin-4-yl)-7-(1H-pyrazol-3-yl)-thieno[3,2-d]pyrimidin-4-yl]-3-phenyl-propane-1,2-diamine]
0.1 to 1	N[C@H](CNc1nc(-c2ccncc2)nc2c(-c3ccccc3)csc12)Cc1ccccc1 [compound 417, (S)-3-Phenyl-N*1*-(7-phenyl-2-pyridin-4-yl-thieno[3,2-d]pyrimidin-4-yl)-propane-1,2-diamine]
0.1 to 1	N[C@H](CNc1nc(-c2ccncc2)nc2c(-c3cc(C4CC4)[nH]n3)csc12)Cc1ccccc1 [compound 418, (S)-N*1*-[7-(5-Cyclopropyl-1H-pyrazol-3-yl)-2-pyridin-4-yl-thieno[3,2-d]pyrimidin-4-yl]-3-phenyl-propane-1,2-diamine]
0.1 to 1	N[C@H](CNc1nc(-c2ccncc2F)nc2c(-c3ccc[nH]3)csc12)Cc1ccccc1 [compound 419, (S)-N*1*-[2-(3-Fluoro-pyridin-4-yl)-7-(1H-pyrrol-2-yl)-thieno[3,2-d]pyrimidin-4-yl]-3-phenyl-propane-1,2-diamine]
0.1 to 1	N[C@H](CNc1nc(-c2ccncc2F)nc2c(-c3cc[nH]c3)csc12)Cc1ccccc1 [compound 420, (S)-N*1*-[2-(3-Fluoro-pyridin-4-yl)-7-(1H-pyrrol-3-yl)-thieno[3,2-d]pyrimidin-4-yl]-3-phenyl-propane-1,2-diamine]
1 to 10	N[C@H](CNc1nc(-c2ccncc2F)nc2c(-c3cc(C(F)(F)F)[nH]n3)csc12)Cc1ccccc1 [compound 421, (S)-N*1*-[2-(3-Fluoro-pyridin-4-yl)-7-(5-trifluoromethyl-2H-pyrazol-3-yl)-thieno[3,2-d]pyrimidin-4-yl]-3-phenyl-propane-1,2-diamine]
1 to 10	Cc1ccccc1-c1csc2c(NC[C@@H](N)Cc3ccccc3)nc(-c3ccncc3F)nc12 [compound 433, (S)-N*1*-[2-(3-Fluoro-pyridin-4-yl)-7-o-tolyl-thieno[3,2-d]pyrimidin-4-yl]-3-phenyl-propane-1,2-diamine]
1 to 10	N[C@H](CNc1nc(-c2ccncc2F)nc2c(-c3ccccc3)csc12)Cc1ccccc1 [compound 434, (S)-N*1*-[2-(3-Fluoro-pyridin-4-yl)-7-phenyl-thieno[3,2-d]pyrimidin-4-yl]-3-phenyl-propane-1,2-diamine]
1 to 10	NCc1coc(-c2csc3c(NC[C@@H](N)Cc4ccccc4)nc(-c4ccncc4F)nc23)c1 [compound 435, S)-N*1*-[7-(4-Aminomethyl-furan-2-yl)-2-(3-fluoro-pyridin-4-yl)-thieno[3,2-d]pyrimidin-4-yl]-3-phenyl-propane-1,2-diamine]
10 to 40	CC(C)(C)c1sc2c(NC[C@@H](N)Cc3ccccc3)nc(-c3ccncc3)nc2c1-c1cccc(F)c1 [compound 436, (S)-N*1*-[6-tert-Butyl-7-(3-fluoro-phenyl)-2-pyridin-4-yl-thieno[3,2-d]pyrimidin-4-yl]-3-phenyl-propane-1,2-diamine]
1 to 10	CC(C)(C)c1sc2c(NC[C@@H](N)Cc3ccccc3)nc(-c3ccncc3)nc2c1-c1cn[nH]c1 [compound 437, (S)-N*1*-[6-tert-Butyl-7-(1H-pyrazol-4-yl)-2-pyridin-4-yl-thieno[3,2-d]pyrimidin-4-yl]-3-phenyl-propane-1,2-diamine]
1 to 10	Cc1sc2c(NC[C@@H](N)Cc3ccccc3)nc(-c3ccncc3)nc2c1-c1ccc(F)nc1 [compound 438, (S)-N*1*-[7-(6-Fluoro-pyridin-3-yl)-6-methyl-2-pyridin-4-yl-thieno[3,2-d]pyrimidin-4-yl]-3-phenyl-propane-1,2-diamine]
10 to 40	COc1ccncc1-c1c(C)sc2c(NC[C@@H](N)Cc3ccccc3)nc(-c3ccncc3)nc12 [compound 439, (S)-N*1*-[7-(4-Methoxy-pyridin-3-yl)-6-methyl-2-pyridin-4-yl-thieno[3,2-d]pyrimidin-4-yl]-3-phenyl-propane-1,2-diamine]
